Square brackets hold non-standard residues; d marks the D form. Ends that are not written are not given here.
Legend:
[1] = test system: first instar H. virescens larvae; assay: Feeding of first instar H. virescens on TMOF analogs for 14 days; format: in vivo, Heliothis virescens; conditions: first instar larvae fed individually 1.6 µg of TMOF analogs for 14 days
[2] = test system: fourth instar Heliothis virescens; assay: Feeding TMOF analogs to fourth instar H. virescens: larval weight; format: in vivo; conditions: for Weight Gain / Weight mg ± S.E.M. End: fourth instar larvae fed synthetic food and 0.8 mg of TMOF analogs for 5 days
Procedure: In both cases a reduction in weight gain and trypsin inhibition was noted (Tables 3 and 4).
(§1) Larvae were fed for 5 to 14 days and larval weight and trypsin activity were measured at the end of the experimental periods. […] When first instar larvae were fed for 14 days on analogs 15 and 16 (Table 4), an 18% and 26% reduction in weight was observed.

trypsin biosynthesis [3] = assay: Feeding TMOF analogs to fourth instar H. virescens: gut trypsin biosynthesis ([3H]DFP); format: in vivo, Heliothis virescens; conditions: guts of fourth instar larvae after 5 days feeding on 0.8 mg of TMOF analogs
Procedure: as §1

mosquito larvae = assay: Feeding TMOF and its analogue peptides to mosquito larvae (LD50); format: in vivo, Aedes aegypti; conditions: 100 μl microtiter plates, 7 days, diet of autoclaved yeast (1 mg/ml)
From the text: TMOF can traverse the gut epithelium, enter the hemolymph and bind a gut receptor (Borovsky, D. and F. Mahmood (1995) “Feeding the mosquito Aedes aegypti with TMOF and its analogs; effect on trypsin biosynthesis and egg development,” Regulatory Peptides 57:273-281.; Borovsky, D., C. A. Powell, J. K. Nayar, J. E. Blalock, and T. K. Hayes (1994) “Characterization and localization of mosquito-gut receptors for trypsin modulating oostatic factor using complementary peptide immunochemistry” FASEB J. 8:350-355.). […] This characteristic permits testing of TMOF and its analogs by feeding them to mosquito and other pest larvae. To determine whether truncated TMOF peptides have an effect on larval growth and development, a series of peptides were synthesized and tested by feeding them to mosquito larvae at concentrations of 0.5 to 5.0 mg/ml (Table 1). Individual, newly hatched Aedes aegypti larvae were maintained in separate microtiter wells on a diet of autoclaved yeast (1 mg/ml). The diet was supplemented with TMOF peptides (Table 1). An identical number of larvae which were maintained on yeast served as a control. […] All control groups survived and larval growth and development was normal. Since larvae swallow only a small portion of the yeast particles that adsorbed the peptides, it is assumed that approximately 1 to 20 ng are taken orally at the high concentrations.

trypsin biosynthesis [4] = assay: Injecting TMOF-R analogues into second instar Heliothis virescens: trypsin biosynthesis (BApNA); format: in vivo; conditions: second instar larvae, 24 hours after injection
Procedure: TMOF analogues (5 to 8 amino acids in length, and polymers of these analogues) in which Arg was added at the C-terminus were evaluated to determine their effect on larval growth and development. A series of analogues were synthesized and tested by feeding them to mosquito larvae at concentrations of (0.5 to 5.0 mg/ml; Table 4). Concentrations of 2.0 to 0.065 mg/ml were used to feed mosquito larvae and calculate the Lethal Dose at 50% mortality (LD50; Table 4) of the TMOF analogues. […] In both cases larval death and trypsin biosynthesis inhibition was noted (Table 4 and 5). […] The advantage of using short analogues connected by Arg is that they can be digested in the gut into short TMOF analogues that can penetrate the midgut much faster than longer analogues.
Individual second instar larvae of H. virescens were injected with TMOF-R analogues (10 to 0.25 μg per larva) and maintained in separate plastic cups on artificial diet. Twenty-four hours after the injections 3 groups of larvae (3 per group) were assayed for trypsin biosynthesis using BApNA (trypsin specific substrate; Table 5).

Substance: YSPAP (TMOF peptide) [54]
- Number of Dead Larvae [1]: 0
- Weight (mg) ± S.E.M. [1]: 168 ± 11 mg
- Weight Reduction (%) ± S.E.M. [1]: 0%
- larval weight and trypsin biosynthesis (in words) ([2]; fourth instar larvae fed TMOF analog peptides for 5 days): Reductions in larval weight and trypsin biosynthesis were observed
- Weight Gain [2]: 151 mg
- Weight mg ± S.E.M. End [2]: 188 ± 10.6 mg
- Inhibition (% ± S.E.M.) of trypsin biosynthesis (trypsin biosynthesis [3]): 19 ± 2%
- Trypsin μg ± S.E.M. (trypsin biosynthesis [3]): 2.0 ± 0.2 µg
- LD50 mM ± S.E.M. (mosquito larvae): 3 1.4 ± 0.03 mM

Substance: YDA (TMOF peptide) [36]
- LD50 mM ± S.E.M. (mosquito larvae): 3 1.6 ± 0.13 mM

Substance: YDPAPR (TMOF-R analogue peptide) [57]
- Inhibition (% ± S.E.M.) of trypsin biosynthesis (trypsin biosynthesis [4]; 0.25 μg/injection): 11 ± 1%
- Inhibition (% ± S.E.M.) of trypsin biosynthesis (trypsin biosynthesis [4]; 0.5 μg/injection): 14 ± 1%
- Inhibition (% ± S.E.M.) of trypsin biosynthesis (trypsin biosynthesis [4]; 1 μg/injection): 31.5 ± 2%
- Inhibition (% ± S.E.M.) of trypsin biosynthesis (trypsin biosynthesis [4]; 10 μg/injection): 53 ± 25%

Substance: PAP (TMOF peptide) [31]
- LD50 mM ± S.E.M. (mosquito larvae): 3 3.17 ± 0.14 mM

Substance: YFPAP (TMOF peptide) [51]
- LD50 mM ± S.E.M. (mosquito larvae): 3 0.64 ± 0.03 mM

Substance: YAPAP (TMOF peptide) [62]
- LD50 mM ± S.E.M. (mosquito larvae): 3 0.54 ± 0.13 mM

Substance: FDPAP (TMOF peptide) [27]
- LD50 mM ± S.E.M. (mosquito larvae): 3 0.37 ± 0.15 mM

Substance: (DPAR)4
- Inhibition (% ± S.E.M.) of trypsin biosynthesis (trypsin biosynthesis [4]; 0.5 μg/injection): 3 ± 0.3%
- Inhibition (% ± S.E.M.) of trypsin biosynthesis (trypsin biosynthesis [4]; 1 μg/injection): 35 ± 7%
- Inhibition (% ± S.E.M.) of trypsin biosynthesis (trypsin biosynthesis [4]; 10 μg/injection): 58 ± 36%

Substance: YAP (TMOF peptide) [34]
- LD50 mM ± S.E.M. (mosquito larvae): 3 2.3 ± 0.5 mM

Substance: MPDYP5 (MPDYPPPPP; TMOF peptide) [29]
- LD50 mM ± S.E.M. (mosquito larvae): 3 > 3.0 mM

Substance: APA (TMOF peptide) [19]
- LD50 mM ± S.E.M. (mosquito larvae): 3 1.0 ± 0.07 mM

Substance: YDG (TMOF peptide) [40]
- LD50 mM ± S.E.M. (mosquito larvae): 3 0.95 ± 0.11 mM

Substance: Y(D)DPAP (Y[dD]PAP) [33]
- Number of Dead Larvae [1]: 1
- Weight (mg) ± S.E.M. [1]: 152 ± 27 mg
- Weight Reduction (%) ± S.E.M. [1]: 7 ± 1%
- Weight Gain [2]: 153 mg
- Weight mg ± S.E.M. End [2]: 188 ± 12 mg
- Inhibition (% ± S.E.M.) of trypsin biosynthesis (trypsin biosynthesis [3]): 15 ± 1.3%
- Trypsin μg ± S.E.M. (trypsin biosynthesis [3]): 2.1 ± 0.2 µg
- LD50 mM ± S.E.M. (mosquito larvae): 3 1.2 ± 0.3 mM

Substance: YNPAP (TMOF peptide) [52]
- LD50 mM ± S.E.M. (mosquito larvae): 3 0.55 ± 0.03 mM

Substance: FSP (TMOF peptide) [28]
- LD50 mM ± S.E.M. (mosquito larvae): 3 2.3 ± 0.13 mM

Substance: ADP (TMOF peptide) [17]
- LD50 mM ± S.E.M. (mosquito larvae): 3 > 6.6 mM

Substance: YDP (TMOF peptide) [42]
- Number of Dead Larvae [1]: 0
- Weight (mg) ± S.E.M. [1]: 157 ± 10 mg
- Weight Reduction (%) ± S.E.M. [1]: 4 ± 0.2%
- Weight Gain [2]: 186.3 mg
- Weight mg ± S.E.M. End [2]: 223.4 ± 16 mg
- Inhibition (% ± S.E.M.) of trypsin biosynthesis (trypsin biosynthesis [3]): 19 ± 3.2%
- Trypsin μg ± S.E.M. (trypsin biosynthesis [3]): 2.1 ± 0.3 µg
- LD50 mM ± S.E.M. (mosquito larvae): 5 2.3 ± 0.4 mM

Substance: YSF (TMOF peptide) [53]
- LD50 mM ± S.E.M. (mosquito larvae): 3 1.08 ± 0.12 mM

Substance: AAP (TMOF peptide) [16]
- LD50 mM ± S.E.M. (mosquito larvae): 3 1.08 ± 0.07 mM

Substance: DPA
- LD50 mM ± S.E.M. (mosquito larvae): 3 0.4 ± 0.03 mM

Substance: YDPAL (TMOF peptide) [45]
- LD50 mM ± S.E.M. (mosquito larvae): 3 0.52 ± 0.03 mM

Substance: (D)YDP ([dY]-Asp-Pro) [43]
- LD50 mM ± S.E.M. (mosquito larvae): 3 0.51 ± 0.05 mM

Substance: PAA (TMOF peptide) [30]
- LD50 mM ± S.E.M. (mosquito larvae): 3 2.4 ± 0.34 mM

Reference: patent US6635265B1, “Materials and methods useful for the control of insect larvae” (University of Florida Research Foundation, Inc., priority 1999, dated 2003)
